The values that follow come from US8946282B2, “Indolin-2-one derivatives as protein kinase inhibitors” (Annji Pharmaceutical Co., Ltd., priority 2012, dated 2015).

One series concerns the target T1, FLT-3 (Homo sapiens, UniProt P36888).
T1 sequence (P36888 27-993): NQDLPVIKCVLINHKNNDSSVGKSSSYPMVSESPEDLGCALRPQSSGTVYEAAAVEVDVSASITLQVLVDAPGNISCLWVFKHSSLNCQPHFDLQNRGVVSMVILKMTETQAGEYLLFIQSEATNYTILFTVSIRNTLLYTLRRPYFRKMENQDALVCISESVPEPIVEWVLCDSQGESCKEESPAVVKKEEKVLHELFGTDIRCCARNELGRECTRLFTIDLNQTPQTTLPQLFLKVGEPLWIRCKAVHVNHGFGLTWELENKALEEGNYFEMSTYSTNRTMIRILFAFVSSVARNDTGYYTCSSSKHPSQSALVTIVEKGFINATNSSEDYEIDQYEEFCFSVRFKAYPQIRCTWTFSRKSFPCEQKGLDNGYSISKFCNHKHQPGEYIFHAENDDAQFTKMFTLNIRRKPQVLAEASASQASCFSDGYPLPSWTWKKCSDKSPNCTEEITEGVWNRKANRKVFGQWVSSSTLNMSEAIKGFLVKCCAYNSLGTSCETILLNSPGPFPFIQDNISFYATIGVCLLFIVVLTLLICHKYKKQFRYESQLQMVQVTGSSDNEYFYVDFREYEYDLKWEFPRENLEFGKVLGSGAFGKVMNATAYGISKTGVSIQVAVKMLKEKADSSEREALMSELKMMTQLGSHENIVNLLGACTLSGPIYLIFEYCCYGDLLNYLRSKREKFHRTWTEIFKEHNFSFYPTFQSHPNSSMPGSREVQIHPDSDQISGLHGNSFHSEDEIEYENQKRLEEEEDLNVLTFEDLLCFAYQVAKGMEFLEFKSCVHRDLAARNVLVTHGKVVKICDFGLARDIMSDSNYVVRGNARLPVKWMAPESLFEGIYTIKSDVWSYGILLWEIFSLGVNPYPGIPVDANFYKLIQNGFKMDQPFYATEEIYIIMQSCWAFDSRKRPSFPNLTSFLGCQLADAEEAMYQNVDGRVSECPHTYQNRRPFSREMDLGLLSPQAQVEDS
The experiment in a line: radioisotope-based P81 filter-binding assay, FLT-3 kinase. It counts as biochemical. Conditions: for IC50: averaged from two independent dose-response curves, read-out: Enzyme assay IC50 FLT-3. How it is done:
(§1) Compounds of formula (I)-(IV) were evaluated for abilities in inhibiting protein kinases aurora B and FLT-3 activity using radioisotope-based P81 filter-binding assay (Table 1).

For another series, the target named is aurora B (Homo sapiens, UniProt Q96GD4). The experiment in a line: radioisotope-based P81 filter-binding assay, aurora B kinase. It counts as biochemical. Conditions: for IC50: averaged from two independent dose-response curves, read-out: Enzyme assay IC50 Aur B; for inhibition at 1 µM: compound at 1.0 μM, mean values (n=2), read-out: percent inhibition of enzyme catalytic activity, Aur B (numbers in parentheses). As to the method: as §1

Each structure is given as a SMILES string.

Broadly, the melting point is the temperature, or range, at which the solid turns liquid. As a reminder, the IC50 is the concentration needed to halve the response being measured. Usually inhibition stands for the share of the control response that was lost under treatment.

Chain of aurora B (Q96GD4 whole entry): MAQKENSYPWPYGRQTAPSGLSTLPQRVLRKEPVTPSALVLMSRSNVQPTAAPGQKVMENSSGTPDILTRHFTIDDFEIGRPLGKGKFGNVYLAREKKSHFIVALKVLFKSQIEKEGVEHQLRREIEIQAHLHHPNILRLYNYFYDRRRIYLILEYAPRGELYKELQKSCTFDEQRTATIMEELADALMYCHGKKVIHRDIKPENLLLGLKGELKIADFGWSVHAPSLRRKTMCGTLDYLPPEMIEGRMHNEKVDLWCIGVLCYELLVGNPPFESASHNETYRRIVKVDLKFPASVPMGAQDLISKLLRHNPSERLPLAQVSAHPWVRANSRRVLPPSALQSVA

As to `Cc1[nH]c(/C=C2\C(=O)Nc3cc(NC(=O)NC(=O)c4ccccc4)ccc32)c(C)c1C(=O)O` [D32, (Z)-5-((6-(3-benzoylureido)-2-oxoindolin-3-ylidene)methyl)-2,4-dimethyl-1H-pyrrole-3-carboxylic acid], the melting point is 270 to 275 °C (dec.). Further, the IC50 on FLT-3 was found to be 904 nM. For the same molecule, the IC50 at aurora B was 2.1 nM.

In the case of `Cc1[nH]c(/C=C2\C(=O)Nc3cc(NC(=O)NC(=O)c4ccc(Cl)c(Cl)c4)ccc32)c(C)c1C(=O)O` [D34, (Z)-5-((6-(3-(3,4-dichlorobenzoyl)ureido)-2-oxoindolin-3-ylidene)methyl)-2,4-dimethyl-1H-pyrrole-3-carboxylic acid], the melting point was 295 to 300 °C (dec.). Further, the half-maximal inhibitory concentration (IC50) on FLT-3 turned out to be 54.2 nM. Besides, the IC50 on aurora B came out at 2.1 nM.

In the case of `Cc1[nH]c(/C=C2\C(=O)Nc3cc(NC(=O)NC(=O)c4ccc(C(F)(F)F)cc4)ccc32)c(C)c1C(=O)O` [D35, (Z)-2,4-dimethyl-5-((2-oxo-6-(3-(4-(trifluoromethyl)benzoyl)ureido)indolin-3-ylidene)methyl)-1H-pyrrole-3-carboxylic acid], the melting point was greater than 300 °C. The IC50 on FLT-3 was found to be 231 nM. Besides, on aurora B, the IC50 was determined as 3.1 nM.

Turning to `Cc1[nH]c(/C=C2\C(=O)Nc3cc(NC(=O)NC(=O)c4ccc([N+](=O)[O-])cc4)ccc32)c(C)c1C(=O)O` [D38, (Z)-2,4-dimethyl-5-((6-(3-(4-nitrobenzoyl)ureido)-2-oxoindolin-3-ylidene)methyl)-1H-pyrrole-3-carboxylic acid], the melting point was 293 to 298 °C (dec.). The 50% inhibitory concentration (IC50) at FLT-3 was greater than 1000 nM. Moreover, the IC50 on aurora B was 1.2 nM.

In the case of `Cc1cccc(C(=O)NC(=O)Nc2ccc3c(c2)NC(=O)/C3=C\c2[nH]c(C)c(CCC(=O)O)c2C)c1` [D40, (Z)-3-(2,4-dimethyl-5-((6-(3-(3-methylbenzoyl)ureido)-2-oxoindolin-3-ylidene)-methyl)-1H-pyrrol-3-yl)propanoic acid], the melting point was 240 to 245 °C (dec.). For the same molecule, on FLT-3, the IC50 was found to be 6.1 nM. Moreover, on aurora B, the IC50 turned out to be 1.9 nM.

Molecule `COc1cc(OC)cc(C(=O)NC(=O)Nc2ccc3c(c2)NC(=O)/C3=C\c2[nH]c(C)c(C(=O)O)c2C)c1` [D42, (Z)-5-((6-(3-(3,5-dimethoxybenzoyl)ureido)-2-oxoindolin-3-ylidene)methyl)-2,4-dimethyl-1H-pyrrole-3-carboxylic acid] showed a melting point greater than 300 °C. The IC50 on FLT-3 stood at 115 nM. The IC50 on aurora B was 2.1 nM.

In turn, `COc1ccc(C(=O)NC(=O)Nc2ccc3c(c2)NC(=O)/C3=C\c2[nH]c(C)c(-c3ccccc3)c2C)cc1` [D43, (Z)—N-(3-((3,5-dimethyl-4-phenyl-1H-pyrrol-2-yl)methylene)-2-oxoindolin-6-ylcarbamoyl)-4-methoxybenzamide] came in with a melting point greater than 300 °C. In addition, on FLT-3, the IC50 is greater than 1000 nM. Moreover, the inhibition at 1 µM at aurora B stood at 12.4%.

In the case of `COc1ccc(C(=O)NC(=O)Nc2ccc3c(c2)NC(=O)/C3=C\c2[nH]c(C)cc2C)cc1` [D44, (Z)—N-(3-((3,5-dimethyl-1H-pyrrol-2-yl)methylene)-2-oxoindolin-6-ylcarbamoyl)-4-methoxybenzamide], the melting point lay in the range of 293 to 298 °C. In addition, on FLT-3, the IC50 was greater than 1000 nM. At aurora B, the IC50 is 55.5 nM.

For `COc1ccc(C(=O)NC(=O)Nc2ccc3c(c2)NC(=O)/C3=C\c2ccc(C(=O)O)[nH]2)cc1` [D45, (Z)-5-((6-(3-(4-methoxybenzoyl)ureido)-2-oxoindolin-3-ylidene)-methyl)-1H-pyrrole-2-carboxylic acid], the melting point is 286 to 291 °C (dec.). Also, the inhibition at 1 µM on FLT-3 (compound at 1.0 μM, mean values (n=2), read-out: percent inhibition of enzyme catalytic activity, FLT-3 (numbers in parentheses)) came to 10%. Moreover, the inhibition at 1 µM on aurora B was determined as 20.9%.

For the molecule `COc1ccc(C(=O)NC(=O)Nc2ccc3c(c2)NC(=O)/C3=C\c2[nH]c(C)c(CC(=O)O)c2C)cc1` [D46], the melting point is 240 to 245 °C (dec.). The IC50 on FLT-3 was 31.7 nM. For the same molecule, the IC50 on aurora B stood at 1.8 nM.

Turning to `COc1ccc(C(=O)NC(=O)Nc2cc3c(cc2F)/C(=C/c2ccc[nH]2)C(=O)N3)cc1` [D48, (Z)—N-(3-((1H-pyrrol-2-yl)methylene)-5-fluoro-2-oxoindolin-6-ylcarbamoyl)-4-methoxybenzamide], the melting point is greater than 300 °C. Also, the IC50 on FLT-3 is greater than 10000 nM. In addition, at aurora B, the IC50 was 35.1 nM.

In the case of `COc1ccc(C(=O)NC(=O)Nc2cc3c(cc2F)/C(=C/c2[nH]c(C)c(CC(=O)O)c2C)C(=O)N3)cc1` [D50, (Z)-2-(5-((5-fluoro-6-(3-(4-methoxybenzoyl)ureido)-2-oxoindolin-3-ylidene)-methyl)-2,4-dimethyl-1H-pyrrol-3-yl)acetic acid], the melting point was 292 to 297 °C (dec.). Also, on FLT-3, the IC50 was greater than 1000 nM. Moreover, the 50% inhibitory concentration (IC50) at aurora B came to 1 nM.

Take `O=C(NC(=O)c1ccccc1F)Nc1ccc2c(c1)NC(=O)/C2=C\c1ccc[nH]1` [D52, (Z)—N-(3-((1H-pyrrol-2-yl)methylene)-2-oxoindolin-6-ylcarbamoyl)-2-fluorobenzamide]: the melting point was 276 to 281 °C (dec.). For the same molecule, the IC50 at FLT-3 was greater than 1000 nM. Further, the IC50 at aurora B is 6.5 nM.

For `COc1ccc(C(=O)NC(=O)Nc2ccc3c(c2)NC(=O)/C3=C\c2[nH]c(C)c(C(=O)O)c2C)c(F)c1` [D57, (Z)-5-((6-(3-(2-fluoro-4-methoxybenzoyl)ureido)-2-oxoindolin-3-ylidene)methyl)-2,4-dimethyl-1H-pyrrol-3-carboxylic acid], the melting point was 295 to 300 °C (dec.). For the same molecule, the IC50 on FLT-3 turned out to be 111 nM. Besides, the IC50 on aurora B was determined as 2.3 nM.

For `COc1ccc(C(=O)NC(=O)Nc2cc3c(cc2F)/C(=C/c2[nH]c(C)c(CCC(=O)O)c2C)C(=O)N3)c(F)c1` [D60, (Z)-3-(5-((5-fluoro-6-(3-(2-fluoro-4-methoxybenzoyl)ureido)-2-oxoindolin-3-ylidene)methyl)-2,4-dimethyl-1H-pyrrol-3-yl)propanic acid], the melting point is 275 to 280 °C (dec.). In addition, the IC50 on FLT-3 is 16.3 nM. The IC50 on aurora B was found to be 1.5 nM.

The molecule `COc1cc(F)c(C(=O)NC(=O)Nc2cc3c(cc2F)/C(=C/c2[nH]c(C)c(C(=O)O)c2C)C(=O)N3)c(F)c1` [D61] showed a melting point greater than 300 °C. At FLT-3, the half-inhibitory concentration (IC50) is 380 nM. Also, the IC50 on aurora B turned out to be 2.1 nM.

Consider `CCOC(=O)c1c(C)[nH]c(/C=C2\C(=O)Nc3cc(NC(=O)NC(=O)c4ccc(OC)cc4F)ccc32)c1C` [D62, (Z)-ethyl-5-((6-(3-(2-fluoro-4-methoxybenzoyl)ureido)-2-oxoindolin-3-ylidene)methyl)-2,4-dimethyl-1H-pyrrole-3-carboxylate], for which the melting point was 278 to 283 °C (dec.). Besides, at FLT-3, the IC50 is 2980 nM. Moreover, at aurora B, the IC50 was found to be 1720 nM.

With `COc1ccc(C(=O)NC(=O)Nc2ccc3c(c2)NC(=O)/C3=C\c2[nH]c(C)c(C(=O)N3CCN(C)CC3)c2C)c(F)c1` [D64, (Z)—N-(3-((3,5-dimethyl-4-(4-methylpiperazine-1-carbonyl)-1H-pyrrol-2-yl)methylene)-2-oxoindolin-6-ylcarbamoyl)-2-fluoro-4-methoxybenzamide], the melting point is 250 to 255 °C (dec.). The IC50 on FLT-3 is 57.1 nM. On aurora B, the IC50 amounted to 30.6 nM.

Take `COc1ccc(C(=O)NC(=O)Nc2ccc3c(c2)NC(=O)/C3=C\c2[nH]c(C)c(CCC(=O)N3CCN(C)CC3)c2C)c(F)c1` [D65, (Z)—N-(3-((3,5-dimethyl-4-(3-(4-methylpiperazin-1-yl)-3-oxopropyl)-1H-pyrrol-2-yl)methylene)-2-oxoindolin-6-ylcarbomoyl)-2-fluoro-4-methoxybenzamide]: the melting point is 229 to 234 °C (dec.). Moreover, at FLT-3, the IC50 amounted to 41.4 nM. Moreover, on aurora B, the IC50 turned out to be 18.4 nM.

For `COc1ccc(C(=O)NC(=O)Nc2ccc3c(c2)NC(=O)/C3=C\c2[nH]c(C)c(C(=O)N3CCOCC3)c2C)c(F)c1` [D66, (Z)—N-(3-((3,5-dimethyl-4-(morpholine-4-carbonyl)-1H-pyrrol-2-yl)methylene)-2-oxoindolin-6-ylcarbamoyl)-2-fluoro-4-methoxybenzamide], the melting point was 273 to 278 °C (dec.). In addition, the half-maximal inhibitory concentration (IC50) on FLT-3 was 79.5 nM. Besides, the IC50 on aurora B was 16.8 nM.
